# Assay results from EP0648123B1, “INHIBITORS OF PROTEIN TYROSINE-PHOSPHATASE $g(a) FOR TREATMENT OF TUMORS” (NATIONAL UNIVERSITY OF SINGAPORE, priority 1992, dated 1994).
# Where “and” joins values, the source holds several entries; their conditions need not be identical. Equal entries are not always repeated.
# Key:
# [1] = test system: REF α-21 PTPα-overexpressing cells; experiment: Tumourigenesis by REF α-21 cells grown and injected with vanadate; assay type: in vivo, nude mice
# Protocol: The α-21 cells were grown in DME medium containing 10% FCS and then in DME medium with 0.1% FCS in the presence of 50 µM sodium orthovanadate for 48 h. The cells were then harvested by trypsinisation, centrifuged to pellet the cells, and the cell pellet resuspended in DME containing 50 µM sodium orthovanadate. Other α-21 cells were grown and prepared in a similar manner, except in the absence of sodium orthovanadate throughout. The resuspended cells (plus or minus vanadate) were subcutaneously injected into nude mice (2 x 10^6 cells/mouse, 4 mice for each treatment), and nine days later the tumour size was measured.
# REF-neo cells = experiment: Effect of sodium orthovanadate on proliferation of control cells (cell count); assay type: cell-based, Fischer rat; conditions: 10% FCS
# Protocol: (§1) 1. Cells were grown on 5 cm petri dishes in DME medium with 10% FCS for 48 h. After 48 h of growth, each dish of α-7, α-21, and α-29 cells contained about 0.4 x 10^5 to 0.6 x 10^5 cells, and each dish of REF-neo cells contained 1.8 x 10^5 cells. The medium was discarded, and fresh medium containing 10% FCS and the indicated concentration (below) of sodium orthovanadate was added to the cells. After 48 h of culture in this medium the cells from two replicate dishes were harvested and counted. […]
# (§2) 2. Cells (control cells = REF-neo, PTPα-overexpressing cells = α-21) were grown on 5 cm petri dishes in DME medium with 10% FCS for 48 h. The medium was discarded, and fresh medium containing 10% FCS and the indicated concentration (below) of sodium orthovanadate was added to the cells. After 72 h of culture in this medium the cells from two replicate dishes were harvested and counted. The results are shown in Table 3 below and are essentially the same as in 1 above.
# α-29 cells = experiment: Effect of sodium orthovanadate on proliferation of PTPα-overexpressing cells (cell count); assay type: cell-based, Fischer rat; conditions: 10% FCS, 48 h
# Protocol: as §1
# α-7 cells = experiment: as above; assay type: cell-based, Fischer rat; conditions: 10% FCS, 48 h
# Protocol: as §1
# α-21 cells [2] = experiment: Colony forming ability in soft agar in the presence of sodium orthovanadate; assay type: cell-based, Fischer rat; conditions: 9 days
# Protocol: The α-21 cells were grown in soft agar in the presence of the indicated concentration of sodium orthovanadate (below) on duplicate dishes. After 9 days the colonies were counted on each dish and the approximate size of the colonies noted. […]
# α-21 cells [3] = experiment: Effect of sodium orthovanadate on proliferation of PTPα-overexpressing cells (cell count); assay type: cell-based, Fischer rat; conditions: for cell count, set #3 / cell count, set #2 (+0.1% FCS) / Number of cells/5 cm dish / cell count, set #1 (+10% FCS): α-21; for cell count, set #3 / Number of cells/5 cm dish / cell count, set #1 (+10% FCS): 10% FCS; for cell count, set #3: then another 48 h in 10% FCS without vanadate
# Protocol: as §1, §2
# 3. PTPα-overexpressing cells (α-21) were grown for 48 h (to about 60% confluency) in DME medium containing 10% FCS. The medium was removed and replaced with medium containing the indicated concentration of sodium orthovanadate (below) and either 10% (sets #1 and #3) or 0.1% FCS (set #2). The cells were cultured for 48 h and counted (sets #1 and 2), or the medium was removed from set #3 and replaced with medium containing 10% FCS without sodium orthovanadate and cultured for another 48 h before counting. […]
smiles,measurement,setting,value
"[Na+].[Na+].[Na+].[O]=[V]([O-])([O-])[O-] [Vanadate, sodium orthovanadate]",average tumour size,"[1]; 4 mice, α-21 cells grown and injected with 50 µM sodium orthovanadate, nine days later",0.618 cm^2
same,tumour size,"[1]; individual mice, α-21 cells grown and injected with 50 µM sodium orthovanadate, subcutaneous, 2 x 10^6 cells/mouse, nine days later",0.30 x 0.8 cm = 0.24 cm^2 and 0.70 x 1.5 cm = 1.05 cm^2 and 0.40 x 0.7 cm = 0.28 cm^2 and 0.75 x 1.2 cm = 0.90 cm^2
same,tumours smaller than those arising from cells grown and injected in the absence of vanadate,"[1]; on average, 50 µM sodium orthovanadate, nine days",2.6 times
same,Number of cells/5 cm dish,"REF-neo cells; vanadate 5 µM, 48 h",1.10 x 10^6 cells/5 cm dish
same,Number of cells/5 cm dish,"REF-neo cells; vanadate 5 µM, 72 h",1.90 x 10^6 cells/5cm dish
same,Number of cells/5 cm dish,"REF-neo cells; vanadate 30 µM, 48 h",1.04 x 10^6 cells/5 cm dish
same,Number of cells/5 cm dish,"REF-neo cells; vanadate 30 µM, 72 h",1.80 x 10^6 cells/5cm dish
same,Number of cells/5 cm dish,"REF-neo cells; vanadate 60 µM, 48 h",9.90 x 10^5 cells/5 cm dish
same,Number of cells/5 cm dish,"REF-neo cells; vanadate 60 µM, 72 h",1.60 x 10^6 cells/5cm dish
same,Number of cells/5 cm dish,"REF-neo cells; vanadate 120 µM, 48 h",7.60 x 10^5 cells/5 cm dish
same,Number of cells/5 cm dish,"REF-neo cells; vanadate 120 µM, 72 h",6.70 x 10^5 cells/5cm dish
same,Number of cells/5 cm dish,α-29 cells; vanadate 5 µM,1.62 x 10^6 cells/5 cm dish
same,Number of cells/5 cm dish,α-29 cells; vanadate 30 µM,7.20 x 10^5 cells/5 cm dish
same,Number of cells/5 cm dish,α-29 cells; vanadate 60 µM,4.70 x 10^5 cells/5 cm dish
same,Number of cells/5 cm dish,α-29 cells; vanadate 120 µM,2.10 x 10^5 cells/5 cm dish
same,Number of cells/5 cm dish,α-7 cells; vanadate 5 µM,1.72 x 10^6 cells/5 cm dish
same,Number of cells/5 cm dish,α-7 cells; vanadate 30 µM,1.41 x 10^6 cells/5 cm dish
same,Number of cells/5 cm dish,α-7 cells; vanadate 60 µM,1.18 x 10^6 cells/5 cm dish
same,Number of cells/5 cm dish,α-7 cells; vanadate 120 µM,5.80 x 10^5 cells/5 cm dish
same,Number of colonies Average,α-21 cells [2]; vanadate 5 µM,1260
same,Number of colonies Exp 1,α-21 cells [2]; vanadate 5 µM,1127
same,Number of colonies Exp 2,α-21 cells [2]; vanadate 5 µM,1392
same,Number of colonies Average,α-21 cells [2]; vanadate 10 µM,1196
same,Number of colonies Exp 1,α-21 cells [2]; vanadate 10 µM,1458
same,Number of colonies Exp 2,α-21 cells [2]; vanadate 10 µM,934
same,Number of colonies Average,α-21 cells [2]; vanadate 20 µM,667
same,Number of colonies Exp 1,α-21 cells [2]; vanadate 20 µM,692
same,Number of colonies Exp 2,α-21 cells [2]; vanadate 20 µM,641
same,Number of colonies Average,α-21 cells [2]; vanadate 40 µM,292
same,Number of colonies Exp 1,α-21 cells [2]; vanadate 40 µM,312
same,Number of colonies Exp 2,α-21 cells [2]; vanadate 40 µM,271
same,Number of colonies Average,α-21 cells [2]; vanadate 80 µM,82
same,Number of colonies Exp 1,α-21 cells [2]; vanadate 80 µM,90
same,Number of colonies Exp 2,α-21 cells [2]; vanadate 80 µM,73
same,toxicity to α-21 cells (resumption of proliferation once vanadate is removed),α-21 cells [3]; comparison of cell numbers in sets #1 and 3,not irreversibly toxic
same,"cell count, set #3","α-21 cells [3]; vanadate 5 µM, 48 h",2.90 x 10^6
same,"cell count, set #2 (+0.1% FCS)","α-21 cells [3]; vanadate 5 µM, 48 h",1.18 x 10^6
same,Number of cells/5 cm dish,"α-21 cells [3]; vanadate 5 µM, 48 h",1.42 x 10^6 cells/5 cm dish
same,"cell count, set #1 (+10% FCS)","α-21 cells [3]; vanadate 5 µM, 48 h",1.30 x 10^6
same,Number of cells/5 cm dish,"α-21 cells [3]; vanadate 5 µM, 72 h",1.20 x 10^6 cells/5cm dish
same,"cell count, set #3","α-21 cells [3]; vanadate 30 µM, 48 h",1.46 x 10^6
same,"cell count, set #2 (+0.1% FCS)","α-21 cells [3]; vanadate 30 µM, 48 h",5.40 x 10^5
same,Number of cells/5 cm dish,"α-21 cells [3]; vanadate 30 µM, 48 h",7.00 x 10^5 cells/5 cm dish
same,"cell count, set #1 (+10% FCS)","α-21 cells [3]; vanadate 30 µM, 48 h",5.00 x 10^5
same,Number of cells/5 cm dish,"α-21 cells [3]; vanadate 30 µM, 72 h",4.80 x 10^5 cells/5cm dish
same,"cell count, set #3","α-21 cells [3]; vanadate 60 µM, 48 h",9.60 x 10^5
same,"cell count, set #2 (+0.1% FCS)","α-21 cells [3]; vanadate 60 µM, 48 h",3.80 x 10^5
same,Number of cells/5 cm dish,"α-21 cells [3]; vanadate 60 µM, 48 h",3.70 x 10^5 cells/5 cm dish
same,"cell count, set #1 (+10% FCS)","α-21 cells [3]; vanadate 60 µM, 48 h",3.20 x 10^5
same,Number of cells/5 cm dish,"α-21 cells [3]; vanadate 60 µM, 72 h",2.60 x 10^5 cells/5cm dish
same,"cell count, set #3","α-21 cells [3]; vanadate 120 µM, 48 h",5.20 x 10^5
same,"cell count, set #2 (+0.1% FCS)","α-21 cells [3]; vanadate 120 µM, 48 h",2.00 x 10^5
same,Number of cells/5 cm dish,"α-21 cells [3]; vanadate 120 µM, 48 h",1.60 x 10^5 cells/5 cm dish
same,"cell count, set #1 (+10% FCS)","α-21 cells [3]; vanadate 120 µM, 48 h",1.80 x 10^5
same,Number of cells/5 cm dish,"α-21 cells [3]; vanadate 120 µM, 72 h",1.76 x 10^5 cells/5cm dish
